Here are results for one compound from BindingDB's records for patent US20260014133 (St. Jude''s Chidren''s Research Hospital, Inc., 2026).

In general, IC50 refers to the point on the concentration scale where inhibition reaches its midpoint. A low value points to greater potency in that assay.

Each structure is given as a SMILES string.

For the experiment, the target named is DNA damage-binding protein 1/Protein cereblon (Homo sapiens, UniProt Q96SW2). The experiment in a line: CRBN Fluorescence Polarization Assay. As for the experimental part:
In this competitive fluorescent polarization assay Cy5 conjugated lenalidomide analog (Cy5-O-Len)13 was used as a fluorescent probe. 6×His-CRBN-DDB1 protein (200 nM) and Cy5-O-Len probe (30 nM) were combined in 20 mM HEPES pH 7, 150 mM NaCl, 0.005% Tween-20 assay buffer. 20 μL of this assay cocktail was dispensed into wells of Corning 3821 black 384-well plates. Compounds were transferred to the assay plate from a dose-response plate using a Pintool on a Biomek FXP Laboratory Automation Workstation (Beckman Coulter). The plates were incubated in the dark for 1 hour at room temperature and then read on an Envision plate reader (PerkinElmer, Massachusetts, USA). IC50 values were determined using a proprietary software RISE (Robust Investigation of Screening Experiments), developed in house on the Pipeline Pilot platform (Biovia, v. 17.2.0). Data represent the mean of three independent determinations.
(In fluorescence polarisation assays a small probe gives low polarisation when free and higher when bound to something large.)

For `O=C1CCC(N2Cc3cc(NC(=O)Cc4ccccn4)ccc3C2=O)C(=O)N1` (stereo unspecified) [US20260014133, Compound 28], the IC50 was < 1000 nM.
